Measurements: patent US6703506B2, “Amino acid ester containing azole antifungals” (Janssen Pharmaceutica, N.V., priority 1997, dated 2004)
Values after ≈ are worked out from the molar mass of the structure shown.

Assays:
[1] = system: Trichophyton mentagrophytes; assay: Determination of fungal susceptibility (MIC); type: cell-based; conditions: CYG medium, 5 days at 30° C., growth to 35% of control or less
Method: (§1) A panel of Candida isolates plus single isolates of the dermatophytes Microsporum canis, Trichophyton rubrum and T. mentagrophytes; Aspergillus fumigates, and Cryptococcus neoformans were used to evaluate the activity of the test compounds in vitro. Inocula were prepared as broth cultures (yeasts) or as suspensions of fungal material made from agar slope cultures (moulds). The test compounds were pipetted from DMSO stock solution into water to provide a series of 10-fold dilutions. The fungal inocula were suspended in the growth medium CYG (F. C. Odds, Journal of Clinical Microbiology, 29, (2735-2740, 1991) at approximately 50,000 colony-forming units (CFU) per ml and added to the aqueous test drugs. The cultures were set up in the 96 wells of plastic microdilution plates and they were incubated for 2 days at 37° C. (Candida spp.) or for 5 days at 30° C. (other fungi). Growth in the microcultures was measured by their optical density (OD) measured at a wavelength of 405 nm. The OD for cultures with test compounds was calculated as a percentage of the control, drug-free OD. Inhibition of growth to 35% of control or less was recorded as significant inhibition.
(§2) Minimal inhibitory concentration (MICs; in 10^−6 M) of intermediate 2 as the major metabolite and some of the compounds of formula (I) for Candida glabrata, Candida krusel, Candida parapsilosis, Candida albicans, Candida kefyr, Candida tropicalis, Microsporum canis, Trichophyton rubrum, Trichophyton mentagrophytes, Cryptococcus neoformans, Aspergillus fumigatus are listed in table 8.

Aspergillus fumigatus [2] = assay: Determination of fungal susceptibility (MIC); type: cell-based; conditions: CYG medium, 5 days at 30° C., growth to 35% of control or less
Method: as §1, §2

Candida krusei = assay: Determination of fungal susceptibility (MIC); type: cell-based; conditions: CYG medium, 2 days at 37° C., growth to 35% of control or less
Method: as §1, §2

Candida tropicalis = assay: Determination of fungal susceptibility (MIC); type: cell-based; conditions: CYG medium, 2 days at 37° C., growth to 35% of control or less
Method: as §1, §2

Cryptococcus neoformans = assay: Determination of fungal susceptibility (MIC); type: cell-based; conditions: CYG medium, 5 days at 30° C., growth to 35% of control or less
Method: as §1, §2

Candida glabrata = assay: Determination of fungal susceptibility (MIC); type: cell-based; conditions: CYG medium, 2 days at 37° C., growth to 35% of control or less
Method: as §1, §2

Candida albicans [3] = assay: Determination of fungal susceptibility (MIC); type: cell-based; conditions: CYG medium, 2 days at 37° C., growth to 35% of control or less
Method: as §1, §2

Candida parapsilosis = assay: Determination of fungal susceptibility (MIC); type: cell-based; conditions: CYG medium, 2 days at 37° C., growth to 35% of control or less
Method: as §1, §2

Microsporum canis = assay: Determination of fungal susceptibility (MIC); type: cell-based; conditions: CYG medium, 5 days at 30° C., growth to 35% of control or less
Method: as §1, §2

Candida kefyr = assay: Determination of fungal susceptibility (MIC); type: cell-based; conditions: CYG medium, 2 days at 37° C., growth to 35% of control or less
Method: as §1, §2

Trichophyton rubrum = assay: Determination of fungal susceptibility (MIC); type: cell-based; conditions: CYG medium, 5 days at 30° C., growth to 35% of control or less
Method: as §1, §2

[4] = Chemical stability (open glass jar, 40° C., 75% relative humidity); type: physicochemical; conditions: 50 mg, after one week
Method: After one week, the amount of test compound remaining was determined.

Aspergillus fumigatus [5] = assay: Disseminated aspergillosis in guinea-pigs; type: in vivo; conditions: for CFU/g (liver): culture-positive livers post mortem; for % neg (total percentage culture-negative deep tissues): liver, spleen, kidney, lung and brain
Method: (§3) Specific pathogen-free (SPF) guinea-pigs (weighing 400-500 g) were used in all experiments. A catheter was placed into the left jugular vein of the animals that were treated by intravenous infusion, the vein was ligated, and the catheter was connected to a microprocessor-controlled infusion pump. The animals were infected with Aspergillus fumigatus (4,000 CFU/g body weight) or with Candida albicans (40,000 CFU/g body weight) either via the lateral vein of the penis or via the implanted catheter. Intravenous treatments (5 mg/kg/day) began 1 hour after infection. The test formulations were then administered on subsequent days as two, 1 hour infusions daily, separated by a period of 5 hours, for a total of 19 infusions or 9.5 days. Oral treatments with the test compounds (5 mg/kg/day) begun 1 hour after infection and were repeated twice daily up to the tenth day after infection (a total of 19 treatments. For each group of tested animals (number of tested animals per group given in column “N”), the mean survival time (MST) in days was recorded as well as the % survivors (% surv). Animals of each group which died during the experiment and those that survived the experiment and were killed, were investigated for counts of Aspergillus fumigatus and Candida albicans in deep tissue (liver, spleen, kidney, lung and brain) post mortem. The remaining CFU/g in the culture-positive livers was measured and expressed in table 9 (after intravenous treatment) and table 10 (after oral treatment) as mean log10 CFU/g. The columns “%neg” in tables 9 and 10 express the total percentage culture-negative deep tissues after the treatment.

[6] = Solubility (excess compound shaken 1 day at room temperature, HPLC); type: physicochemical; conditions: thermodynamic from solid
Method: An excess of compound was added to the solvent (the type of solvent is specified in table 6) The mixture was shaken during 1 day at room temperature. The precipitate was filtered off. The concentration of the compound was measured via HPLC and is shown in the column “Solubility”.

Candida albicans [7] = assay: Disseminated candidosis in guinea-pigs; type: in vivo; conditions: for CFU/g (liver): culture-positive livers post mortem; for % neg (total percentage culture-negative deep tissues): liver, spleen, kidney, lung and brain
Method: as §3

[8] = i.v. treatment 5 mg/kg/day, 19 infusions, 9.5 days
[9] = oral treatment 5 mg/kg/day, twice daily, 19 treatments

Structure (SMILES): C[C@H](OC(=O)[C@@H](N)Cc1ccccc1)[C@H](C)n1ncn(-c2ccc(N3CCN(c4ccc(OC[C@@H]5CO[C@@](Cn6cncn6)(c6ccc(F)cc6F)O5)cc4)CC3)cc2)c1=O (relative stereo) [Compound 23, [2S-[2α,4α[(R*,R*)]]]-2-[4-[4-[4-[4-[[2-(2,4-difluorophenyl)-2-(1H-1,2,4-triazol-1-ylmethyl)-1,3-dioxolan-4-yl]methoxy]-phenyl]-1-piperazinyl]-phenyl]-4,5-dihydro-5-oxo-1H-1,2,4-triazol-1-yl]-1-methylpropyl L-phenylalanine]
- MIC [1]: 1 10^−6 M
- MIC (Aspergillus fumigatus [2]): 1 10^−6 M
- MIC (Candida krusei): 1 10^−6 M
- MIC (Candida tropicalis): <0.1 10^−6 M
- MIC (Cryptococcus neoformans): 1 10^−6 M
- MIC (Candida glabrata): 10 10^−6 M
- MIC (Candida albicans [3]): <0.1 10^−6 M
- MIC (Candida parapsilosis): <0.1 10^−6 M
- MIC (Microsporum canis): <1 10^−6 M
- MIC (Candida kefyr): <0.1 10^−6 M
- MIC (Trichophyton rubrum): <0.1 10^−6 M
- Stability (amount of test compound remaining) [4]: 99.7%
- CFU/g (liver) (Aspergillus fumigatus [5]; i.v. treatment 5 mg/kg/day): 3.6 mean log10 CFU/g
- CFU/g (liver) (Aspergillus fumigatus [5]; oral treatment 5 mg/kg/day): 3.0 mean log10 CFU/g
- % surv (% survivors) (Aspergillus fumigatus [5]; [8]): 83.3%
- MST (mean survival time) (Aspergillus fumigatus [5]; [8]): 9.2 days
- % neg (total percentage culture-negative deep tissues) (Aspergillus fumigatus [5]; i.v. treatment 5 mg/kg/day): 71%
- % neg (total percentage culture-negative deep tissues) (Aspergillus fumigatus [5]; oral treatment 5 mg/kg/day): 55%
- % surv (% survivors) (Aspergillus fumigatus [5]; [9]): 30%
- MST (mean survival time) (Aspergillus fumigatus [5]; [9]): 7.8 days
- solubility at 1 day ([6]; aqueous buffer, solvent 0.0001M HCl, final pH in column pH of the same row (3.17-6.68)): 20 µg/mL (≈ 23.9 µM)
- solubility at 1 day ([6]; simulated gastric fluid, solvent 0.1M HCl, final pH in column pH of the same row (1.23-1.55)): > 5560 µg/mL
- CFU/g (liver) (Candida albicans [7]; i.v. treatment 5 mg/kg/day): 0 mean log10 CFU/g
- CFU/g (liver) (Candida albicans [7]; oral treatment 5 mg/kg/day): 0 mean log10 CFU/g
- % surv (% survivors) (Candida albicans [7]; [8]): 83.3%
- MST (mean survival time) (Candida albicans [7]; [8]): 9.8 days
- % neg (total percentage culture-negative deep tissues) (Candida albicans [7]; i.v. treatment 5 mg/kg/day): 79%
- % neg (total percentage culture-negative deep tissues) (Candida albicans [7]; oral treatment 5 mg/kg/day): 73%
- % surv (% survivors) (Candida albicans [7]; [9]): 100%
- MST (mean survival time) (Candida albicans [7]; [9]): 10 days
